Assay results published in PubChem BioAssay AID248 (DTP/NCI, 2004).
Where “and” joins values, the source holds several entries; their conditions need not be identical. Identical values can stand only once. Inconclusive results and toxic doses are left out.

Tested on: L1210 leukemia ip in BDF1 mice, survival T/C
Assay: NCI In Vivo Anticancer Drug Screen. Data for tumor model L1210 Leukemia (intraperitoneal) in B6D2F1 (BDF1) mice
Details: endpoint: mean survival time, higher = longer survival
Method in brief: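 Read-out is survival time, reported as the treated-group measurement over the vehicle-control measurement.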

[1] = dose: 100.0 mg/kg/injection, schedule: Q01DX001 (ip), vehicle: saline
[2] = dose: 200.0 mg/kg/injection, schedule: Q04DX003 (ip), vehicle: saline
[3] = dose: 400.0 mg/kg/injection, schedule: Q04DX003 (ip), vehicle: saline
[4] = dose: 100.0 mg/kg/injection, schedule: Q04DX003 (ip), vehicle: saline

With `O=C(Nc1ccc(NC(=O)Nc2ccc(C3=NCCCN3)cc2)cc1)Nc1ccc(C2=NCCCN2)cc1` the T/C (dose: 8.3 mg/kg/injection, schedule: Q04DX003 (ip), vehicle: saline with Tween-80) was 107 % of control, the T/C (dose: 12.0 mg/kg/injection, schedule: Q04DX003 (ip), vehicle: saline with Tween-80) was 121 % of control and the T/C [1] was 124 % of control. The T/C [2] was 159 % of control, the T/C (dose: 264.0 mg/kg/injection, schedule: Q01DX001 (ip), vehicle: saline) was 208 % of control and the T/C [3] was 279 % of control.

In the case of `CC(C)(C)NC(=O)Oc1cccnc1`, the T/C (dose: 100.0 mg/kg/injection, schedule: Q01DX009 (ip), vehicle: Klucel (hydroxypropylcellulose) (HPC)) is reported as 93 % of control and the T/C (dose: 200.0 mg/kg/injection, schedule: Q01DX009 (ip), vehicle: Klucel (hydroxypropylcellulose) (HPC)) is reported as 102 % of control.

For `c1ccc(CNc2nn[nH]n2)cc1`, the T/C (dose: 100.0 mg/kg/injection, schedule: Q04DX003 (ip), vehicle: saline with Tween-80) was 96 % of control, the T/C (dose: 200.0 mg/kg/injection, schedule: Q04DX003 (ip), vehicle: saline with Tween-80) was 96 % of control and the T/C (dose: 400.0 mg/kg/injection, schedule: Q04DX003 (ip), vehicle: saline with Tween-80) was 94 % of control.

In the case of `CCCCCOC(=O)C#CC(=O)OCCCCC`, the T/C (dose: 1.56 mg/kg/injection, schedule: Q01DX009 (ip), vehicle: carboxymethylcellulose (CMC)) is reported as 92 % of control and 101 % of control, the T/C (dose: 3.13 mg/kg/injection, schedule: Q01DX009 (ip), vehicle: carboxymethylcellulose (CMC)) is reported as 108 % of control and 89 % of control and the T/C (dose: 12.5 mg/kg/injection, schedule: Q01DX009 (ip), vehicle: carboxymethylcellulose (CMC)) is reported as 89 % of control. For the same compound, the T/C (dose: 12.5 mg/kg/injection, schedule: Q04DX003 (ip), vehicle: carboxymethylcellulose (CMC)) was 98 % of control, the T/C (dose: 25.0 mg/kg/injection, schedule: Q04DX003 (ip), vehicle: carboxymethylcellulose (CMC)) was 98 % of control and the T/C (dose: 50.0 mg/kg/injection, schedule: Q01DX009 (ip), vehicle: carboxymethylcellulose (CMC)) was 89 % of control. For the same compound, the T/C (dose: 50.0 mg/kg/injection, schedule: Q04DX003 (ip), vehicle: carboxymethylcellulose (CMC)) was 96 % of control and 100 % of control, the T/C (dose: 100.0 mg/kg/injection, schedule: Q04DX002 (ip), vehicle: carboxymethylcellulose (CMC)) was 97 % of control and 106 % of control and the T/C (dose: 200.0 mg/kg/injection, schedule: Q04DX002 (ip), vehicle: carboxymethylcellulose (CMC)) was 95 % of control and 97 % of control.

For `COc1ccc(/C=C2\N=C(c3ccccc3)OC2=O)cc1`, the T/C [1] was 94 % of control, the T/C [4] was 98 % of control and the T/C (dose: 200.0 mg/kg/injection, schedule: Q01DX001 (ip), vehicle: saline) was 95 % of control. For the same compound, the T/C [2] was 93 % of control, the T/C (dose: 400.0 mg/kg/injection, schedule: Q01DX001 (ip), vehicle: saline) was 94 % of control and the T/C [3] was 93 % of control.

`CCCCCCCCCC(=O)NN=C(C)C` was tested, and the T/C (dose: 12.5 mg/kg/injection, schedule: Q01DX009 (ip), vehicle: Klucel (hydroxypropylcellulose) (HPC)) was 92 % of control, the T/C (dose: 25.0 mg/kg/injection, schedule: Q01DX009 (ip), vehicle: Klucel (hydroxypropylcellulose) (HPC)) was 105 % of control and the T/C (dose: 50.0 mg/kg/injection, schedule: Q01DX009 (ip), vehicle: Klucel (hydroxypropylcellulose) (HPC)) was 116 % of control.

With `O=C1C(=O)c2ccccc2C=C1Br` the T/C (dose: 100.0 mg/kg/injection, schedule: Q04DX003 (ip), vehicle: Klucel (hydroxypropylcellulose) (HPC)) was 94 % of control and the T/C (dose: 200.0 mg/kg/injection, schedule: Q04DX003 (ip), vehicle: Klucel (hydroxypropylcellulose) (HPC)) was 95 % of control.

In the case of `O=[N+]([O-])c1cc(C(F)(F)F)cc([N+](=O)[O-])c1NN=C1CCCCC1`, the T/C (dose: 100.0 mg/kg/injection, schedule: Q01DX009 (ip), vehicle: gum acacia) is reported as 93 % of control, the T/C (dose: 200.0 mg/kg/injection, schedule: Q01DX009 (ip), vehicle: gum acacia) is reported as 91 % of control and the T/C (dose: 400.0 mg/kg/injection, schedule: Q01DX009 (ip), vehicle: gum acacia) is reported as 96 % of control.

For `COC(=O)c1n[nH]c(C2OCC3OC(C)(C)OC32)c1Br` (stereo not given), the T/C (dose: 100.0 mg/kg/injection, schedule: Q01DX005 (ip), vehicle: saline) was 100 % of control and the T/C (dose: 200.0 mg/kg/injection, schedule: Q01DX005 (ip), vehicle: saline) was 91 % of control.

With `O=C1/C(=C/c2ccc(Br)cc2)Cc2ccccc21` the T/C (dose: 100.0 mg/kg/injection, schedule: Q04DX002 (ip), vehicle: saline with Tween-80) was 94 % of control, the T/C (dose: 200.0 mg/kg/injection, schedule: Q04DX002 (ip), vehicle: saline with Tween-80) was 90 % of control and the T/C (dose: 400.0 mg/kg/injection, schedule: Q04DX002 (ip), vehicle: saline with Tween-80) was 90 % of control.

`CCOC(=O)n1ncnc1N` was tested, and the T/C (dose: 100.0 mg/kg/injection, schedule: Q01DX009 (ip), vehicle: saline) was 94 % of control, the T/C [4] was 91 % of control and the T/C (dose: 200.0 mg/kg/injection, schedule: Q01DX009 (ip), vehicle: saline) was 98 % of control. For the same compound, the T/C [2] was 98 % of control, the T/C (dose: 400.0 mg/kg/injection, schedule: Q01DX009 (ip), vehicle: saline) was 104 % of control and the T/C [3] was 95 % of control.
